From the supplement of paper PMC10307832

Legend:
Experiment in all cases: relative viability (nuclei count vs DMSO), 5 days (fraction); higher = more cells survive
[1] = compound: CC1(C)CNc2cc(NC(=O)c3cccnc3NCc3ccncc3)ccc21 [Motesanib] + O=C(c1cc(Cc2n[nH]c(=O)c3ccccc23)ccc1F)N1CCN(C(=O)C2CC2)CC1 [Olaparib] (partner 8 µM)
Summary of the method: (§1)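 One day after seeding in 1536-well plates, lung cancer cell lines were dosed by pin tool. Dosing was either single-drug or a fixed anchor-drug dose plus five library-drug doses (not always all listed) in √10 steps. After 5 days, nuclei were stained in one fix-and-stain step and counted on 4× images, and relative viability is the nuclei count of treated wells over that of vehicle wells, given as the median of duplicate plates.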

[2] = compound: C[C@@]1(C(=O)Nc2ccc(F)nc2)CCCN1c1nc(Nc2cc(C3CC3)n[nH]2)c2cccn2n1 + CC1(C)CCC(c2ccc(Cl)cc2)=C(CN2CCN(c3ccc(C(=O)NS(=O)(=O)c4ccc(N[C@H](CCN5CCOCC5)CSc5ccccc5)c(S(=O)(=O)C(F)(F)F)c4)cc3)CC2)C1 [Navitoclax] (partner 0.5 µM)
Summary of the method: as §1

[3] = compound: C[C@@]1(C(=O)Nc2ccc(F)nc2)CCCN1c1nc(Nc2cc(C3CC3)n[nH]2)c2cccn2n1 + CC(=O)c1c(C)c2cnc(Nc3ccc(N4CCNCC4)cn3)nc2n(C2CCCC2)c1=O [Palbociclib] (partner 0.5 µM)
Summary of the method: as §1

[4] = compound: C[C@@]1(C(=O)Nc2ccc(F)nc2)CCCN1c1nc(Nc2cc(C3CC3)n[nH]2)c2cccn2n1 + CS(=O)(=O)CCNCc1ccc(-c2ccc3ncnc(Nc4ccc(OCc5cccc(F)c5)c(Cl)c4)c3c2)o1 [Lapatinib] (partner 2 µM)
Summary of the method: as §1

In the case of UMC-11, the relative viability ([1]; first compound 0.01 µM) is reported as 0.395, the relative viability ([1]; first compound 0.03162 µM) is reported as 0.356 and the relative viability ([1]; first compound 0.1 µM) is reported as 0.367. It also gave a relative viability ([1]; first compound 0.3162 µM) of 0.378, a relative viability ([1]; first compound 1 µM) of 0.34 and a relative viability ([2]; first compound 0.04 µM) of 0.365. The relative viability ([2]; first compound 0.1265 µM) was 0.293, the relative viability ([2]; first compound 0.4 µM) was 0.249 and the relative viability ([2]; first compound 1.265 µM) was 0.269. For the same cell line, the relative viability ([3]; first compound 0.04 µM) was 0.31, the relative viability ([3]; first compound 0.1265 µM) was 0.312 and the relative viability ([3]; first compound 0.4 µM) was 0.32. For the same cell line, the relative viability ([3]; first compound 1.265 µM) was 0.273, the relative viability ([4]; first compound 0.04 µM) was 1.02 and the relative viability ([4]; first compound 0.1265 µM) was 1.02. For the same cell line, the relative viability ([4]; first compound 0.4 µM) was 0.826 and the relative viability ([4]; first compound 1.265 µM) was 0.805.
